Laboratory results from ChEMBL document CHEMBL1201862, “PubChem BioAssay data set” (2004).
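Protocol summary: plate cells (96-well), add compound at 5 concentrations, incubate 48 h, interpolate endpoints linearly. GI50 = concentration required for 50% inhibition of growth.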 The source made the active and inactive calls. No stated cut-off is given here; in the data, active = GI50 up to about 1.1 µM and inactive = higher.

Columns and labels:
Assay in all cases: NCI anticancer screen, dose series, 48 h
SK-MEL-28 = test system: SK-MEL-28
Malme-3M = test system: Malme-3M
EKVX = test system: EKVX
HOP-92 = test system: HOP-92
SF-268 = test system: SF-268
OVCAR-8 = test system: OVCAR-8
CAKI-1 = test system: CAKI-1
A549 = test system: A549
NCI-H460 = test system: NCI-H460
SW-620 = test system: SW-620
SN12C = test system: SN12C
HT-29 = test system: HT-29
SNB-19 = test system: SNB-19
NCI-H522 = test system: NCI-H522
OVCAR-3 = test system: OVCAR-3
TK-10 = test system: TK-10
MOLT-4 = test system: MOLT-4
NCI-H226 = test system: NCI-H226
NCI/ADR-RES = test system: NCI/ADR-RES

SMILES	GI50 (SK-MEL-28)	GI50 (Malme-3M)	GI50 (EKVX)	GI50 (HOP-92)	GI50 (SF-268)	GI50 (OVCAR-8)	GI50 (CAKI-1)	GI50 (A549)	GI50 (NCI-H460)	GI50 (SW-620)	GI50 (SN12C)	GI50 (HT-29)	GI50 (SNB-19)	GI50 (NCI-H522)	GI50 (OVCAR-3)	GI50 (TK-10)	GI50 (MOLT-4)	GI50 (NCI-H226)	GI50 (NCI/ADR-RES)
Cc1ccc(N2C(=O)N(c3ccc(C)cc3)C3(SC=NN3C)C2=O)cc1 (configuration not stated)	> 100 µM (inactive)	95.5 µM (inactive)	> 100 µM (inactive)	> 100 µM (inactive)	> 100 µM (inactive)	> 100 µM (inactive)	83.2 µM (inactive)	50.5 µM (inactive)	> 100 µM (inactive)	> 100 µM (inactive)	> 100 µM (inactive)	32.4 µM (inactive)	> 100 µM (inactive)	37.8 µM (inactive)	19.5 µM (inactive)	66.4 µM (inactive)	63.2 µM (inactive)	72.8 µM (inactive)	–
O/N=C/c1ncccc1C1OCCO1	> 100 µM (inactive)	> 100 µM (inactive)	> 100 µM (inactive)	> 100 µM (inactive)	> 100 µM (inactive)	> 100 µM (inactive)	> 100 µM (inactive)	> 100 µM (inactive)	> 100 µM (inactive)	> 100 µM (inactive)	> 100 µM (inactive)	> 100 µM (inactive)	> 100 µM (inactive)	> 100 µM (inactive)	> 100 µM (inactive)	> 100 µM (inactive)	> 100 µM (inactive)	> 100 µM (inactive)	–
CC(C)(C)OC(=O)N1CCC(NC(=O)NC2CCN(C(=O)OC(C)(C)C)CC2)CC1	> 100 µM (inactive)	> 100 µM (inactive)	> 100 µM (inactive)	> 100 µM (inactive)	> 100 µM (inactive)	> 100 µM (inactive)	> 100 µM (inactive)	> 100 µM (inactive)	> 100 µM (inactive)	> 100 µM (inactive)	> 100 µM (inactive)	> 100 µM (inactive)	> 100 µM (inactive)	> 100 µM (inactive)	> 100 µM (inactive)	> 100 µM (inactive)	–	–	> 100 µM (inactive)
N/C(=N/O)N/N=C\c1cc(Cl)cc(Cl)c1O	14.1 µM (inactive)	4.86 µM (inactive)	6.71 µM (inactive)	7.26 µM (inactive)	1.4 µM (inactive)	2.38 µM (inactive)	1.09 µM (active)	1.13 µM (inactive)	0.0705 µM (active)	3.97 µM (inactive)	1.62 µM (inactive)	5.2 µM (inactive)	2.27 µM (inactive)	3.47 µM (inactive)	5.41 µM (inactive)	–	0.55 µM (active)	2.01 µM (inactive)	1.32 µM (inactive)
CO/C(=N\N=C\c1ccc(Cl)cc1)c1ccncc1	> 100 µM (inactive)	> 100 µM (inactive)	> 100 µM (inactive)	> 100 µM (inactive)	> 100 µM (inactive)	> 100 µM (inactive)	> 100 µM (inactive)	> 100 µM (inactive)	> 100 µM (inactive)	> 100 µM (inactive)	> 100 µM (inactive)	> 100 µM (inactive)	> 100 µM (inactive)	> 100 µM (inactive)	> 100 µM (inactive)	> 100 µM (inactive)	> 100 µM (inactive)	59.7 µM (inactive)	–
CN(C)c1ccc(C=C2C(=O)OC(C)(C)OC2=O)cc1Br	> 100 µM (inactive)	> 100 µM (inactive)	> 100 µM (inactive)	29.4 µM (inactive)	> 100 µM (inactive)	> 100 µM (inactive)	> 100 µM (inactive)	> 100 µM (inactive)	> 100 µM (inactive)	> 100 µM (inactive)	> 100 µM (inactive)	> 100 µM (inactive)	> 100 µM (inactive)	> 100 µM (inactive)	> 100 µM (inactive)	> 100 µM (inactive)	> 100 µM (inactive)	> 100 µM (inactive)	–
CN1C=C(C(N)=O)Cc2ccsc21	> 100 µM (inactive)	> 100 µM (inactive)	> 100 µM (inactive)	> 100 µM (inactive)	> 100 µM (inactive)	> 100 µM (inactive)	> 100 µM (inactive)	> 100 µM (inactive)	> 100 µM (inactive)	> 100 µM (inactive)	> 100 µM (inactive)	> 100 µM (inactive)	> 100 µM (inactive)	> 100 µM (inactive)	> 100 µM (inactive)	–	> 100 µM (inactive)	> 100 µM (inactive)	–
O=[N+]([O-])c1cc(C(F)(F)F)cc2c1SC1=Nc3ccccc3CN12	> 100 µM (inactive)	> 100 µM (inactive)	> 100 µM (inactive)	> 100 µM (inactive)	> 100 µM (inactive)	> 100 µM (inactive)	> 100 µM (inactive)	> 100 µM (inactive)	> 100 µM (inactive)	> 100 µM (inactive)	> 100 µM (inactive)	> 100 µM (inactive)	> 100 µM (inactive)	> 100 µM (inactive)	> 100 µM (inactive)	–	> 100 µM (inactive)	> 100 µM (inactive)	> 100 µM (inactive)
